Measurements from patent publication US7795226B2, “Control of radiation injury” (Biotempt B.V., priority 2006, dated 2010).

Test system: C57B1/6 mice after Whole Body Irradiation
Test: Whole Body Irradiation 8.6 Gy, treatment from three hours after WBI
Type: in vivo
Method: “WBI” stands for Whole Body Irradiation. Radiation damage protection in vivo was assessed after WBI (6.5 to 9.8 Gy, Philips MG 30 at 81 cGy/min) on anesthetized C57B1/6 mice, and survival differences were measured by Kaplan-Meirer analysis. All groups of mice got the first injection with peptide or vehicle (control animals) three hours after the WBI. The group that got a placebo injection experienced 80% mortality, as predicted in this model. The dose of radiation of 8.6 Gray (=8.6 Gy) is known, in this species, to cause about an 80% mortality, so it is called the LD80 (lethal dose for 80%). The deaths started around Day 10, which is typical for what happens in WBI to animals or humans. By around Day 10, the gut lining is so damaged and leaky from the radiation that bacteria get into the circulation and cause gastrointestinal syndrome, and the bone marrow is so damaged that there is an insufficient number of white blood cells to fight the infection (“Bone Marrow Syndrome”), and death ensues. The group with “x” as the symbol got the first injection IV, and the second injection subcutaneously (SC) three hours after that first injection. 100% of these animals survived. […] To an outside observer, they would look like perfectly normal mice. The group with the triangle symbol got its first injection of the peptide via the SC route. Then it got additional SC injections every 48 hours, for a total of three doses (in addition to the first dose), meaning, on Day 3, Day 5, and Day 7. […] The group with the square symbol was identical in procedures to the group with the triangle symbol, except that the 48 hour SC injections continued on until a total of six doses had been injected (in addition to the first dose). So the dosing continued on until Day 13. […] When the animals got lower-level treatment (SC only), if the treatment was prolonged until the second week, here again, there was complete protection.
The group that got a placebo injection experienced 80% mortality, as predicted in this model. The dose of radiation given (8.6 Gray =8.6 Gy) is known, in this species, to cause about an 80% mortality, so it is called the LD80 (lethal dose for 80%). The deaths starting around Day 10, which is typical for what happens in WBI to animals or humans. By around Day 10, the gut lining is so damaged and leaky from the radiation that bacteria get into the circulation and cause sepsis because of Gastrointestinal (GI) Syndrome, and the bone marrow is so damaged that there is an insufficient number of white blood cells to fight the infection (“Bone Marrow Syndrome”), and death ensues.
A first group of peptide-treated mice (group with “x” as the symbol in FIG. 1) got the first injection with AQGV (SEO ID NO:120) IV, and the second injection subcutaneously (SC) three hours after that first injection.
A second group of mice got its first injection of the peptide via the SC route. Then it got additional SC injections every 48 hours, for a total of three doses (in addition to the first dose), meaning, on Day 3, Day 5, and Day 7.
The third group of mice was identical in procedures to the group with the second group, except that the q48 hour SC injections continued on until a total of six doses had been injected (in addition to the first dose). So the dosing continued on until Day 13.

[1] = first SC injection three hours after WBI, then SC every 48 hours, six additional doses
[2] = first injection IV three hours after WBI, second SC three hours later

## AQGV
[1]
  mortality after WBI (in words): no mortality whatsoever
  signs of sickness after WBI (in words): showed no signs of sickness
First SC injection three hours after WBI, then SC every 48 hours, three additional doses
  mortality after WBI (in words): only one of these animals died
[2]
  signs of sickness after WBI (in words): did not show any signs of sickness at all
  survival after WBI: 100%
